Here are results for 21 compounds from patent publication US5459146A, “4-substituted pyrazoloquinoline derivatives” (Schering Corporation, priority 1993, dated 1995).

Molecules are shown by their SMILES. ≈ marks a conversion by molar mass, not a printed value.

Data set [1] concerns HSV Early Gene Expression. Nature of the data set: Transient Expression Assay for Effects Against HSV Early Gene Expression (β Galactosidase Assay or βgal). The note with it: read-out: βgal. The class given is cell-based. Here is the method: (§1) The compound toxicity assay (3H-LEU), Plaque Reduction Assay for HSV Antiviral Activity (Plaque), and Transient Expression Assay for Effects Against HSV Early Gene Expression (β Galactosidase Assay or βgal) were carried out as set forth in U.S. Pat. No. 5,175,151 which is hereby incorporated by reference.

The nature of data set [2]: compound toxicity assay (3H-LEU). The class given is cell-based. Here is the method: as §1
The subject of data set [3] is HSV. Kind of data set: Plaque Reduction Assay for HSV Antiviral Activity (Plaque). Format: cell-based. Here is the method:
as §1
(In general: In a plaque reduction assay, fewer plaques than in the control indicate reduced infectivity or spread.)

Another data set deals with HSV-1 and HSV-2. The note with it: added to lidocaine or lidocaine hydrochloride; Haines et al.; cited from earlier work.
Data set [4] concerns HSV. Particulars: Haines et al.; cited from earlier work.
The next data set deals with HSV-1. The note with it: U.S. Pat. No. 4,757,088; cited from earlier work.
Another data set relates to HSV-2. The note with it: U.S. Pat. No. 4,757,088; cited from earlier work.
In the next data set the test system is herpes virus. Particulars: U.S. Pat. No. 4,757,088; cited from earlier work.

The CC50 is the concentration that lowers cell viability or growth by half. On to `CC(=O)Oc1ccc2nc3[nH]nc(C)c3c(OC(C)=O)c2c1` [A], for which the IC50 in data set [1] came to 3 µg/mL (≈ 10 µM). In data set [2], this compound yielded a CC50 of 14 µg/mL (≈ 46.8 µM).

Regarding `CC(=O)Oc1ccc2nc3c(c(C)nn3C(C)=O)c(O)c2c1` [B], the IC50 in data set [1] was determined as 8 µg/mL (≈ 26.7 µM). Also, in data set [2], the CC50 worked out at 15 µg/mL (≈ 50.1 µM).

With `CCCCC(=O)Oc1ccc2nc3[nH]nc(C)c3c(OC(=O)CCCC)c2c1` [C], the IC50 in data set [1] was 5 µg/mL (≈ 13 µM). The 50% cytotoxic concentration (CC50) in data set [2] was determined as 5 µg/mL (≈ 13 µM).

`CCC(=O)Oc1ccc2nc3[nH]nc(C)c3c(OC(=O)CC)c2c1` [D]: the IC50 in data set [1] is 11 µg/mL (≈ 33.6 µM).

As for `COc1ccc2nc3c(c(C)nn3C(C)=O)c(O)c2c1` [E], in data set [1], the IC50 was 3 µg/mL (≈ 11.1 µM). In data set [2], this compound showed a CC50 of 23 µg/mL (≈ 84.8 µM).

Take `CC(=O)n1nc(C)c2c(O)c3cc(Cl)ccc3nc21` [F]: the IC50 in data set [1] was determined as 9 µg/mL (≈ 32.6 µM). Besides, in data set [2], it took 37 µg/mL (≈ 134 µM) to reach half-maximal cytotoxicity (CC50).

For the compound `CC(=O)Oc1c2cc(F)ccc2nc2[nH]nc(C)c12` [G], in data set [1], the IC50 stood at 3 µg/mL (≈ 11.6 µM). For the same compound, it took 43 µg/mL (≈ 166 µM) to reach half-maximal cytotoxicity in data set [2] (CC50).

`CC(=O)n1nc(C)c2c(O)c3cc(F)ccc3nc21` [H]: the IC50 in data set [1] turned out to be 2 µg/mL (≈ 7.71 µM). In addition, in data set [2], half-maximal cytotoxicity (CC50) was put at 32 µg/mL (≈ 123 µM).

Consider `CCCCCCCn1nc(C)c2c(OC(C)=O)c3cc(OC)ccc3nc21` [I], for which the IC50 in data set [1] was determined as 2.8 µg/mL (≈ 7.58 µM). Moreover, in data set [2], the CC50 was < 1 µg/mL.

For the compound `CC(=O)n1nc(C)c2c(O)c3cc(C)ccc3nc21` [J], the IC50 in data set [1] amounted to 9 µg/mL (≈ 35.3 µM). In data set [2], the half-maximal cytotoxic concentration (CC50) was found to be 100 µg/mL (≈ 392 µM).

`COc1cc(C)c2[nH]c3c(c(C)nn3C(C)=O)c(=O)c2c1` [K]: the IC50 in data set [1] was 5 µg/mL (≈ 17.5 µM). In addition, in data set [2], the CC50 is > 100 µg/mL.

As for `CCCCCCCn1nc(C)c2c(=O)c3cc(C)ccc3[nH]c21` [L], the IC50 in data set [1] is 3 µg/mL (≈ 9.63 µM). The same compound yielded a half-maximal cytotoxic concentration (CC50) in data set [2] of 3.4 µg/mL (≈ 10.9 µM).

Regarding `CCCCCCCn1nc(C)c2c(OC(C)=O)c3cc(C)ccc3nc21` [M], in data set [1], the IC50 turned out to be 3 µg/mL (≈ 8.49 µM). Moreover, the CC50 in data set [2] is < 1 µg/mL.

Turning to `COc1cccc2c(O)c3c(C)nn(C(C)=O)c3nc12` [N], in data set [1], the IC50 amounted to 3 µg/mL (≈ 11.1 µM). Further, it took 100 µg/mL (≈ 369 µM) to reach half-maximal cytotoxicity in data set [2] (CC50).

Consider `COc1ccc2nc3[nH]nc(C)c3c(OCCN(C)C)c2c1` [O], for which the IC50 in data set [1] came to 1.4 µg/mL (≈ 4.66 µM); in the data set on HSV [3], 0.7 µg/mL (≈ 2.33 µM). This compound yielded a cytotoxic concentration (CC50) in data set [2] of 5.4 µg/mL (≈ 18 µM).

As to `COc1ccc2nc3c(c(C)nn3CCCO)c(OC)c2c1` [P], the figures for the IC50 (in data set [1]; in the data set on HSV [3]) were 7.2 µg/mL (≈ 23.9 µM) and > 20 µg/mL, respectively.

Turning to `COc1ccc2nc3[nH]nc(C)c3c(OCCN3CCOCC3)c2c1` [Q], the IC50 (in data set [1]; in the data set on HSV [3]) was 20 µg/mL (≈ 58.4 µM) in each case.

As for `C=CCOc1ccc2nc3c(c(C)nn3CC=C)c(O)c2c1` [R], the IC50 (in data set [1]; with HSV [3]) was 20 µg/mL (≈ 67.7 µM) throughout.

`CC(C)(CO)[C@@H](O)C(=O)NCCCO` [dexpanthenol]: the “antiviral activity of lidocaine or lidocaine hydrochloride on addition of the substance” value with HSV-1 and HSV-2 is reported as “significantly enhances”.

On to `CCN(CC)CC(=O)Nc1c(C)cccc1C` [lidocaine, 2-(diethylamino)-N-(2,6-dimethylphenyl)acetamide], for which the “treatment of HSV oral and genital lesions in humans” value in the data set with HSV [4] is given as “particularly effective”. For the same compound, in the data set on HSV-1, the “antiviral activity in cell culture against HSV-1” value was “antiviral agent”. Moreover, the “antiviral activity in cell culture against HSV-2” value in the data set on HSV-2 is listed as “antiviral agent”. Further, the “treatment of herpes virus infections of mammals” value in the data set on herpes virus is recorded as “able to treat herpes virus infections of mammals”.

Turning to `CC(C)(CO)[C@@H](O)C(=O)NCCC(=O)O` [panthothenic acid], in the data set on HSV-1 and HSV-2, the “antiviral activity of lidocaine or lidocaine hydrochloride on addition of the substance” value is “significantly enhances”.
